What follows are compounds tested against T1, Kinesin-like protein KIFC1 (Homo sapiens, UniProt Q9BW19) (assay: Inhibitory Activities Against HSET-HSET ADP-Glo Assay).
T1 sequence (Q9BW19 whole entry): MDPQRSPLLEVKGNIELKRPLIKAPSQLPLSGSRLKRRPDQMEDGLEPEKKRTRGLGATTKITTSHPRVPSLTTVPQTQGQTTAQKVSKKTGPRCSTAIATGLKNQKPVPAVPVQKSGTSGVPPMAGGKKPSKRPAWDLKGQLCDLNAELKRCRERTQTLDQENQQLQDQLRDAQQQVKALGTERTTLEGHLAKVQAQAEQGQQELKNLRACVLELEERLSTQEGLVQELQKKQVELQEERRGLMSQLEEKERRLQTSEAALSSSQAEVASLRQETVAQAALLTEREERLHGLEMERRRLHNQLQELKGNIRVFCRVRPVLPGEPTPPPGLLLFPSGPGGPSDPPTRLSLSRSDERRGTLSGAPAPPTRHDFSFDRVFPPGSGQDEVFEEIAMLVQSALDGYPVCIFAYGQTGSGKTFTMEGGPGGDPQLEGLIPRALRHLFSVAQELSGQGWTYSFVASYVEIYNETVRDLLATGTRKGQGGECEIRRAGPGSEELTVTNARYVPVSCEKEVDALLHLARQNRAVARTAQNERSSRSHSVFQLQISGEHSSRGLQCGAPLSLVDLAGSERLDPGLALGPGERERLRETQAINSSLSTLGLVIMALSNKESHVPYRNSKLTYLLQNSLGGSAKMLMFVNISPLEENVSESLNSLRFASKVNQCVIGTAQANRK
Experimental: Reagents: (+4° C. Storage)Paclitaxel Prod.No.TXD.01 2 mM in DMSO (from Universal Biologicals Cambridge).Tubulin Protein (Pre-formed Microtubules): Bovine Brain Prod.No.MT001-XL Lot.025 10 mg/mL (from Universal Biologicals Cambridge).Reagents: (−80° C. Storage)MT001-XL—Tubulin Protein (Pre-formed Microtubules): Bovine Brain—reconstituted in buffer—15 mM PIPES pH7, 1 mM MgCl2, 20 μM paclitaxel (aliquots at 10 mg/mL) from Universal Biologicals Cambridge.HSET full length protein—Current batch is FL HSET Prep1 (SEQ-000096_002-01_01)Buffer is 20 mM Hepes pH 7.5, 200 mM NaCl, 2 mM TCEP, 5% glycerol (5 μL aliquots at 10.2 μM)Reagents: (−20° C. Storage)ADP-Glo Kinase Assay kit (Promega Prod.No.V9102) 10,000 assay pointsADP-Glo reagent (50 mL), Kinase Detection Reagent (100 mL), and Ultrapure ATP (10 mM) aliquotedBuffer Stocks (filtered and stored at rt for up to 1 month)HEPES acid, 4-(2-Hydroxyethyl)piperazine-1-ethanesulfonic acid MW:238, 238.3 mg/mL=1 M7149 mg/30 mL=1M (pH to 6.8 with 5 M NaOH)PIPES, 1,4-Piperazinediethanesulfonic acid MW: 302.4, 30.24 mg/mL=100 mM; 907.2 mg/30 mL=100 mM (pH to 7 with 5 M NaOH, white cloudy suspension until the pH changes)EGTA, Ethylene glycol-bis(2-aminoethylether)-N,N,N′,N′-tetraacetic acid MW: 380.35, 38.035 mg/mL=100 mM1901.75 mg/50 mL=100 mM (pH to ˜7 with 5 M NaOH)—takes a long time to get into solution and for pH to stabilizeTriton-X-100, MW: 625, 62.5 mg/mL=100 mM (6.25% w/v) (viscous, pipette Triton X-100 with a Gilson using a trimmed pipette tip)ECHO ProtocolCreate an ECHO intermediate plate by adding 24.5 μL DMSO to columns 1 & 2, and 40 μL DMSO to columns 23 & 24 of an ECHO 384PP plateAdd 100 nL of compound/DMSO per well in 384-well Proxi-Plate Plus (white) —Perkin Elmer Cat #6008289 using ECHO dose response protocol 100 nL normal to Assay buffer (Keep on ice): HEPES pH 6.8, MgCl2, EGTA, Triton X-100, DTT, HPLC H2O Microtubule Working Solution (3.2):1 ml PM buffer: PIPES pH 7.0, MgCl2, HPLC H2O, Paclitaxel, mix well, store at rtThen add 26.4 μL of 10 mg/ml microtubules to 724 μL of the above PM buffer to make 750 μL of microtubule working solution @350 μg/mL microtubules (store at rt)Stock HSET enzyme solution (3.1)—keep on iceAdd 1.33 μL 10.2 μM HSET Prepi (SEQ-000096_002-01_01) to 1358 μL assay buffer to make a 10 nM stock for a 5 nM final assay concentration (1/1020 dilution).HSET/Microtubule working solution (3.3)Mix solutions 3.1 and 3.2 in the ratio of 2.5:1 (1214.3 μL 3.1+485.7 μL 3.2) keep at rt for 15 min3.2 is diluted 3.5-fold, 3.1 is diluted 1.4-fold BLANK solution is 357 μL 2XAB+143 μL microtubule working solution 3.2. (Same proportions as HSET/Microtubule working solution (3.3))ATP Working solution is 1 μL 10 mM UltraPure ATP (Promega kit)+999 μL ddH20 gives 10 μM ATP for a 3 μM final assay concentration, stored on ice.Assay procedure in PROXIPLATE 384 PLUS WHITE (Perkin Elmer) plates (Remove 2.4 mL ADP Glo and 4.5 mL Kinase detection reagent from freezer to warm up to rt)Add 3.5 μL BLANK solution to assay plate (column 12)Add 3.5 μL HSET/Microtubule solution (3.3) (columns 1-11 & 13-24)Centrifuge at 1000 rpm for 1 min(pre-incubate enzyme and compound for 10 min)Add 1.5 μL of 10 μM ATP to start reaction gives a final [HSET] of 5 nM, [ATP] of 3 μM and [microtubule] of 70 μg/mL, centrifuge at 1000 rpm for 1 min and incubated at rt for 80 min.After the 80-minute incubation, stop reaction by adding 5 μL ADP-Glo reagent to all wells. Centrifuge for 1 min at 1000 rpm, leave for 40 min at rt.In the dark/away from direct light, add 10 μL Kinase Detection Reagent (KDR) to all wells, Seal plate with a Topseal (Perkin Elmer Cat #6050185) and centrifuge as above, leave for 40 min at rt covered in foil.

IC50 [nM]	SMILES
67	CCCc1nc(-c2cnc(NC(=O)CCNc3nccc4ccc(-c5noc(C)n5)cc34)s2)no1 [US20250084074, Example 119]
199	Cc1nc(NC(=O)CCNc2nccc3ccc(C#N)cc23)sc1C(C)(C)C [US20250084074, Example 50]
1600	Cc1nc(NC(=O)CCNc2nccc3ccc(C#N)cc23)sc1C1(C(F)(F)F)CC1 [US20250084074, Example 51]
6400	Cc1nc(-c2cccc(C(=O)NCCC(=O)Nc3cnn(C(=O)OC(C)(C)C)c3)c2)no1 [US20250084074, Example 274]
2160	Cc1nc(-c2cccc(C(=O)NCCC(=O)Nc3nc(C)c(C(F)(F)F)s3)c2)no1 [US20250084074, Example 139]
54	CCCOC(=O)c1sc(NC(=O)[C@@H](N)CNC(=O)c2cccc(-c3noc(C)n3)c2)nc1C [US20250084074, Example 160]
3080	CCCOC(=O)c1sc(C(=O)N2CC[C@@H](NC(=O)c3cccc(-c4noc(C)n4)c3)C2)nc1C [US20250084074, Example 241]
78	Cc1nc(-c2ccc3ccnc(NCCC(=O)Nc4nc(C)c(C(C)(C)C)s4)c3c2)no1 [US20250084074, Example 75]
2150	CCc1nc(NC(=O)[C@@H](N)CNC(=O)c2cccc(-c3noc(C)n3)c2)sc1C(C)(C)C [US20250084074, Example 161]
1150	Cc1nc(-c2ccc3ccnc(N[C@H]4C[C@@H](C(=O)Nc5nc(C)c(Br)s5)C4)c3c2)no1 [US20250084074, Example 97]
240	Cc1nc(NC(=O)CCNc2nccc3c(F)cc(C#N)cc23)sc1C(C)(C)C [US20250084074, Example 53]
14	Cc1nnn(-c2ccc3ccnc(NCCC(=O)Nc4nc(C)c(C(C)(C)C)s4)c3c2)n1 [US20250084074, Example 58]
